Data on 36 compounds can be found in PubChem BioAssay AID463136 (University of Pittsburgh Molecular Library Screening Center, 2010).

Experiment [1] relates to HCS imaging, dynein-mediated cargo transport inhibition. The experiment is described as follows: blockers of dynein-driven microtubule transport – imaging, high-content imaging, dose response (AID 463136).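 Further: mouse mammary adenocarcinoma 3617.4 cells expressing GFP-tagged rat glucocorticoid receptor.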
Assay in experiment [2]: as above
Particulars: HCS imaging, dynein-mediated cargo transport inhibition; inhibition at max concentration; at 50 µM; stronger effect = higher value.

The structures appear in SMILES notation. Records with an inconclusive call do not appear. Active and inactive are the calls of the source. How the calls were made is not given here.

In general, IC50 refers to the concentration that gives 50% inhibition. By inhibition is commonly meant the relative decrease from the control value, in per cent. `O=C1C=CC(=O)N1CCNc1ncc(C(F)(F)F)cc1Cl`: the IC50 in experiment [1] was > 50 µM (inactive). In addition, in experiment [2], the inhibition came out at 21.2%. For the compound `CC(C)(C)C(=O)Cn1ncc(Br)c(Br)c1=O`, the IC50 in experiment [1] is 7.91 µM. Also, the inhibition in experiment [2] stood at 59.6%.

As for `O=c1c(Cl)cc(Cl)nn1-c1ccccc1`, the IC50 in experiment [1] is 10.5 µM. For the same compound, in experiment [2], the inhibition was found to be 72.4%. The corresponding values for `O=C(c1nnsc1S(=O)c1ccc(Cl)cc1)N1CCOCC1` (stereo not given) are 2.18 µM and 76.9%.

Turning to `CCOC(=O)C1=C(Cc2ccc(OC)cc2)C(=O)c2ccccc2C1=O`, in experiment [1], the IC50 is > 50 µM (inactive). Also, the inhibition in experiment [2] was found to be 21.6%. The corresponding values for `Cc1cc(C)cc(Cn2ncc(Cl)c(Cl)c2=O)c1` are 22.7 µM and 63.9%. The corresponding values for `CCN1CCN(C2=C(Cl)C(=O)N(Cc3ccccc3)C2=O)CC1` are 20.9 µM and 87.8%. Taken in the same sequence, the figures for `O=c1c2ccccc2sn1-c1ccccc1` were 12.7 µM and 90.4%. As for `O=c1c(Cl)c(Cl)cnn1Cc1ccc(F)cc1`, the IC50 in experiment [1] was 10.3 µM. The inhibition in experiment [2] worked out at 80.4%. The corresponding values for `COC(=O)c1cc(=O)n(Cc2ccc(F)cc2)c(=Nc2ccccc2)s1` are > 50 µM (inactive) and 15.5%. The corresponding values for `CC(=O)n1cc(N(C(=O)CCl)c2ccc(C)cc2)c2ccccc21` are 16.8 µM and 68.7%. The corresponding values for `Cc1ccnc(N/C=C(\C#N)c2nc(-c3cccc(Br)c3)cs2)c1` are 8.77 µM and 102%. For `N#CC(C#N)=C1C=C2C=C(N3CCCCCC3)CCC2CC1` (stereo not given), the half-maximal inhibitory concentration (IC50) in experiment [1] is 36.2 µM. The inhibition in experiment [2] came to 99.2%. For `O=[N+]([O-])c1c(NCCCO)cc(Sc2ccc(Cl)cc2)c2nonc12`, in experiment [1], the IC50 is > 50 µM (inactive). Also, the inhibition in experiment [2] amounted to 30.9%. The corresponding values for `O=C1/C(=C/c2ccc(N3CCOCC3)o2)SC(=Nc2ccccc2)N1CCc1c[nH]c2ccccc12` are 1.2 µM and 95.6%. Taken in the same sequence, the figures for `CN(C(=O)CCl)C1CCCc2ccccc21` (stereo not given) were 6.32 µM and 70.4%. Taken in the same sequence, the figures for `CC(C)N1C/C(=C/c2ccsc2)C(=O)/C(=C/c2ccsc2)C1` were 40.1 µM and 69.2%. For `CC(C)(C)c1cc(CN(CCO)CCO)cc(C(C)(C)C)c1O`, the IC50 in experiment [1] was > 50 µM (inactive). For the same compound, the inhibition in experiment [2] came out at 33.9%. The corresponding values for `COc1ccc(OC)c(N2C(=O)NC(=O)/C(=C/c3ccc([N+](=O)[O-])s3)C2=O)c1` are 12.5 µM and 86.6%. Taken in the same sequence, the figures for `CCCNC(=O)c1nnsc1S(=O)c1ccc(Cl)cc1` (stereo not given) were 7.07 µM and 77%.

Take `Cc1ccc(C2=NOC(=O)/C2=C\c2ccc(C)o2)cc1`: in experiment [1], the half-maximal inhibitory concentration (IC50) was 39.9 µM. In experiment [2], the inhibition was 79.8%. Taken in the same sequence, the figures for `CC(C)(C)NC(=S)N/N=C\c1ccc(-c2ccc([N+](=O)[O-])cc2)o1` were > 50 µM (inactive) and 3.06%. The corresponding values for `O=C(COc1ccc(/C=C\[N+](=O)[O-])cc1)N1CCOCC1` are > 50 µM (inactive) and 13.7%. The corresponding values for `CC(C(Sc1ccccc1N)c1ccccc1)[N+](=O)[O-]` (stereo not given) are 24.7 µM and 84.4%. Consider `Cc1ccc(N(C(=O)CCl)C(C(=O)NC2CCCCC2)c2cccnc2)cc1C` (stereo not given), for which the half-inhibitory concentration (IC50) in experiment [1] was 4.62 µM. The inhibition in experiment [2] came to 86.1%.

With `O=C(O)c1ccc(NC2=C(Cl)C(=O)c3ccccc3C2=O)cc1`, in experiment [1], the IC50 is 15.2 µM. The inhibition in experiment [2] was determined as 71.1%. The corresponding values for `O=C(Nc1ccc(Cl)cc1)/C(=C/c1cccc(O)c1)c1nc2ccccc2s1` are > 50 µM (inactive) and 40.7%.

Consider `O=C1C=C(NC2=CC3OC(c4ccccc4)OCC3OC2=O)CCC1` (stereo not given), for which, in experiment [1], the IC50 was > 50 µM (inactive). In addition, in experiment [2], the inhibition is 13%. As for `O=C(/C=C/c1cccnc1)/C=C/c1cccnc1`, the IC50 in experiment [1] was 3.09 µM. Also, the inhibition in experiment [2] stood at 88.7%. Taken in the same sequence, the figures for `Cc1nc2c(=O)n(C)c(=O)n(C)c2nc1Cl` were 9.82 µM and 62.9%. The corresponding values for `O=C1C=CC2C(c3ccc4c(c3)OCO4)CC1N2Cc1ccccc1` (stereo not given) are > 50 µM (inactive) and 13%. The corresponding values for `CC1(C)CCSC(/C=C/c2ccccc2)=N1` are 18.7 µM and 92.6%.

Turning to `COC(=O)/C=C\C(=O)Nc1cccc([N+](=O)[O-])c1`, the IC50 in experiment [1] is > 50 µM (inactive). Moreover, in experiment [2], the inhibition was determined as 5.31%.

`C=C1C(=O)C=C2CN(C(=O)c3ccccc3)[C@@](Cc3ccc(F)cc3)(C(=O)OC)[C@@H]12`: the IC50 in experiment [1] was 4 µM. In experiment [2], the inhibition came out at 80.3%. For the compound `Cc1cccc2cc3c(N)c(C(=O)N4CCc5ccccc54)sc3nc12`, the IC50 in experiment [1] is 5.15 µM. For `O=[N+]([O-])c1ccc(C2=NN(c3ccccc3)C(c3ccco3)C2)cc1` (stereo not given), the half-maximal inhibitory concentration (IC50) in experiment [1] was 32.3 µM.
